Results: US20260356839A1, “DIRECT SYNTHESIS OF N-(3-SUBSTITUTED-CHROMAN-4-YL)-7H- PYRROLO[2,3-D]PYRIMIDIN-4-AMINES AND DERIVATIVES THEREOF” (MITOKININ, INC., priority 2022, published 2026)

Key:
Format in all cases: cell-based
[1] = tested on: HeLa cells expressing mt-Keima and YFP-Parkin (HeLa MKYP); assay: Human mt-Keima Mitophagy Assay; conditions: 16 hrs compound, then 1 μM FCCP/oligomycin for 6 hours, read-out: Mitophagy induction EC50
Protocol: (§1) HeLa cells expressing mt-Keima and YFP-Parkin (HeLa MKYP) were plated at 10,000 cells/well in 96 well plates along with Mitokinin compounds at various concentrations. Following 16 hrs of incubation, cells were treated with 1 μM FCCP/oligomycin for 6 hours, then analyzed via FACS for the presence of mitochondria in lysosomes (as determined by an emissions spectrum shift from the pH-sensitive mt-Keima tag). Additionally, cells treated with 25 μM Mitokinin compound but not treated with FCCP/oligomycin were analyzed for cytotoxicity.
The above compound was prepared using the synthetic methods detailed herein, and evaluated for PINK1 activity. Additional exemplary PINK1 modulators for which the synthetic methods described herein can be used are described in WO 2021/168446

[2] = In Vitro Mitotoxicity (glucose/galactose) Assay; conditions: human, skov3 cells
Protocol: Briefly, SKOV3 cells (ATCC HTB-77) were plated in DMEM (Corning 10-013-CV) medium containing 25 mM glucose or DMEM with no glucose (Gibco 11966-025) supplemented with 10 mM galactose at 9,000 cells/well in 96 well plates (Corning costar 3610). 24 hrs later, compounds, in DMSO, were added at various concentrations to a final 0.1% DMSO for all wells. Following 20 hours of incubation with compound, all wells had their growth medium replaced with DMEM containing 25 mM of glucose followed by the addition of Promega CellTiter-Glo® reagent as per manufacturer's instructions. After a 15 minute incubation cellular ATP levels were read out using a Promega GloMax® DiscoverMicroplate Reader.
The ratio of relative CellTiter-Glo values from cells grown in galactose to cells grown in glucose was determined (gal/glc ratio). The gal/glc ratio vs concentration is then graphed, and non-linear regression is used to find the highest concentration of MTK compound at which gal/glc>0.80 (the “highest mito-safe dose”, or IC20). The Mito-Safety Index in Table 2 is equal to the highest mito-safe dose divided by the mt-Keima EC50 dose.

[3] = Cytotoxicity in the mt-Keima assay cells (FACS, DAPI); conditions: human, hela mkyp cells
Protocol: as §1

Question: With `C[C@@H]1CN([C@H]2COc3cc(F)ccc3[C@@H]2Nc2ncnc3[nH]c(C(F)(F)F)cc23)CCO1` as the molecule, how does the EC50 [1] read?
Answer: The EC50 was 0.13 µM.

Question: What about the selectivity ratio ([2]; highest mito-safe dose divided by the mt-Keima EC50 dose, read-out: Mito-Safety Index (highest safe dose/EC50)) of the same molecule?
Answer: Its selectivity ratio is 135.

Question: What about the IC20 at 20 h ([2]; mitotox or cytotox, highest concentration at which gal/glc > 0.80 (IC20), 20 hours, read-out: Highest safe dose (mitotox or cytotox)) of the same molecule?
Answer: Its IC20 at 20 h is 17.3 µM.

Question: And the MNTC ([3]; no FO, safe means DAPI + < 20%, read-out: Highest safe dose (cytotoxicity; no FO; safe means DAPI+ < 20%))?
Answer: Its MNTC is 21.9 µM.

Question: And the cytotoxicity ([3]; with 1 μM FCCP/oligomycin (FO), read-out: Max % death with 1 μM FO)?
Answer: The cytotoxicity was 29.6%.
